The source of these data is patent US9540348B2, “Imidazole-1-yl pyrimidine derivatives, or pharmacutically acceptable salt thereof, and pharmaceutic composition comprising the same as an active ingredient” (Industry-University Cooperation Foundation Hanyang …, priority 2015, dated 2017).

Each structure is given as a SMILES string.

What all share (type): biochemical
Assay [1] relates to most other kinases except cKit (KIT) and p38a (MAPK14). Description: Kinase panel screening, summary for the other kinases. Conditions: 10 μM concentration. The protocol: (§1) To Compound 10c of Example 23, kinase panel screening was carried out to 32 kinds of kinases in 10 μM concentration and the results are listed in the following Table 2.
For the next assay, the target named is wild-type BRAF (Homo sapiens, UniProt P15056). Description: Enzymatic activity (IC50) to kinases. Conditions: read-out: IC50 (Unit: nM) BRAF.
For a further assay, the target named is BRAF (Homo sapiens, UniProt P15056). Description: Kinase panel screening. The following applies: 10 μM concentration. The protocol:
as §1

For another assay, the target named is c-MET (Homo sapiens, UniProt P08581). As to the kind of experiment: Kinase panel screening. The following applies: 10 μM concentration; read-out: Inhibition Rate (Unit: %) c-MET. The protocol: as §1
In a further assay the target is ABL1 (Homo sapiens, UniProt P00519). As to the kind of experiment: Kinase panel screening. The following applies: 10 μM concentration; read-out: Inhibition Rate (Unit: %) ABL1. As to the method: as §1
The next assay has as its target FAK/PTK2 (Homo sapiens, UniProt Q05397). As to the kind of experiment: Kinase panel screening. Conditions: 10 μM concentration; read-out: Inhibition Rate (Unit: %) FAK/PTK2. As to the method:
as §1

A further assay concerns the target c-Src (Homo sapiens, UniProt P12931). Description: Kinase panel screening. Conditions: 10 μM concentration; read-out: Inhibition Rate (Unit: %) c-Src. As to the method: as §1
The target in the next assay is BTK (Homo sapiens, UniProt Q06187). As to the kind of experiment: Kinase panel screening. Conditions: 10 μM concentration; read-out: Inhibition Rate (Unit: %) BTK. As to the method: as §1
The target of another assay is RON/MST1R (Homo sapiens, UniProt Q04912). As to the kind of experiment: Kinase panel screening. Conditions: 10 μM concentration; read-out: Inhibition Rate (Unit: %) RON/MST1R. The protocol:
as §1

Chain of BRAF (P15056 whole entry): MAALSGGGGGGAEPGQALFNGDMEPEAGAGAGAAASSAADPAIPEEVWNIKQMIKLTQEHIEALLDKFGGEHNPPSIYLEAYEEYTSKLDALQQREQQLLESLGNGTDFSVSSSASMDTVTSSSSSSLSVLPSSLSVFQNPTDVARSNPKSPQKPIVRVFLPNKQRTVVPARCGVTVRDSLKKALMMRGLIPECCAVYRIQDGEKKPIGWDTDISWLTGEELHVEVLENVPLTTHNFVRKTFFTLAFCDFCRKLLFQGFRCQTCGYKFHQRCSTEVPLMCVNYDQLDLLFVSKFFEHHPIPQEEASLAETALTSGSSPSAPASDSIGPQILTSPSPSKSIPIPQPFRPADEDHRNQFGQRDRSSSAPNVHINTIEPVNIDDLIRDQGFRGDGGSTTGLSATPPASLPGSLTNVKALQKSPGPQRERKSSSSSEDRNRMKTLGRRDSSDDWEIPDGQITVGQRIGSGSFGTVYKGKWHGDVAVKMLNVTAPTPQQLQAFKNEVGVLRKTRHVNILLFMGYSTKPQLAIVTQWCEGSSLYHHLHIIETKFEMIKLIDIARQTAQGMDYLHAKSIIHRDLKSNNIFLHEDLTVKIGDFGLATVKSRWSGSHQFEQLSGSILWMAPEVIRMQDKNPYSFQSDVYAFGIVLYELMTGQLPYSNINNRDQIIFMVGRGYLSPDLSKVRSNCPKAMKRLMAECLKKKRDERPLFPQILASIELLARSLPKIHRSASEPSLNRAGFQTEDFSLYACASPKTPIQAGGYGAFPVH
Chain of c-Src (P12931 whole entry, species assumed): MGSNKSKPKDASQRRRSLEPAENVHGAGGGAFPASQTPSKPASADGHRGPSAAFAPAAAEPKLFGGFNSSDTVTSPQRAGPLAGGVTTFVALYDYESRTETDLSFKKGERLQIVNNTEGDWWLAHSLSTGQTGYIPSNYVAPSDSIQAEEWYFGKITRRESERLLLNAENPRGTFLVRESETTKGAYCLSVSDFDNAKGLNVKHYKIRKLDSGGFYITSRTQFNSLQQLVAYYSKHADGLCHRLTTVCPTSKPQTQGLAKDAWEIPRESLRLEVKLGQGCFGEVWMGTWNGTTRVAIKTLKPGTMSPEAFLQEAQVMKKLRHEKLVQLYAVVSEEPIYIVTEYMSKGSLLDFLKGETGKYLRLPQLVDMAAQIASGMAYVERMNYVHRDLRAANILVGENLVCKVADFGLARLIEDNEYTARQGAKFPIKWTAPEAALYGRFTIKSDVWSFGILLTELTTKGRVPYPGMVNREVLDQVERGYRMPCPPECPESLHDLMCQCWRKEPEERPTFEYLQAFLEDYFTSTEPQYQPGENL
Chain of BTK (Q06187 whole entry, species assumed): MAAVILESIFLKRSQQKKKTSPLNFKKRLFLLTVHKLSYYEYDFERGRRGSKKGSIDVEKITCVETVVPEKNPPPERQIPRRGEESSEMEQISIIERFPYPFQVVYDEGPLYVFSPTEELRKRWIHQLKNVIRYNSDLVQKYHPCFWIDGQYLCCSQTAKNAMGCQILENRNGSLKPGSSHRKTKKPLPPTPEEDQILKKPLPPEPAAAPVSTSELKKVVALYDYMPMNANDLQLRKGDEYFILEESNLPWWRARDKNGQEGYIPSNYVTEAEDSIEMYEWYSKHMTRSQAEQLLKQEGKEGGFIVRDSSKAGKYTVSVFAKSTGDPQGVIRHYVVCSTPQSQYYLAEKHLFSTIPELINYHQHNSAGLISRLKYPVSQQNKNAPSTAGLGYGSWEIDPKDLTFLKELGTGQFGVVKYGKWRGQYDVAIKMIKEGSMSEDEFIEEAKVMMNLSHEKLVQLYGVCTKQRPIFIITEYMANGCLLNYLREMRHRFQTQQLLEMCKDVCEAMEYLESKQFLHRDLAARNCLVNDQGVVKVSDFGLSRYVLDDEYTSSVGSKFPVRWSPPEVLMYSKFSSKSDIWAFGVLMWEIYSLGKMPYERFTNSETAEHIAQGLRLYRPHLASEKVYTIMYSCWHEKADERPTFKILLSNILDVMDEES
Chain of RON/MST1R (Q04912 25-1400): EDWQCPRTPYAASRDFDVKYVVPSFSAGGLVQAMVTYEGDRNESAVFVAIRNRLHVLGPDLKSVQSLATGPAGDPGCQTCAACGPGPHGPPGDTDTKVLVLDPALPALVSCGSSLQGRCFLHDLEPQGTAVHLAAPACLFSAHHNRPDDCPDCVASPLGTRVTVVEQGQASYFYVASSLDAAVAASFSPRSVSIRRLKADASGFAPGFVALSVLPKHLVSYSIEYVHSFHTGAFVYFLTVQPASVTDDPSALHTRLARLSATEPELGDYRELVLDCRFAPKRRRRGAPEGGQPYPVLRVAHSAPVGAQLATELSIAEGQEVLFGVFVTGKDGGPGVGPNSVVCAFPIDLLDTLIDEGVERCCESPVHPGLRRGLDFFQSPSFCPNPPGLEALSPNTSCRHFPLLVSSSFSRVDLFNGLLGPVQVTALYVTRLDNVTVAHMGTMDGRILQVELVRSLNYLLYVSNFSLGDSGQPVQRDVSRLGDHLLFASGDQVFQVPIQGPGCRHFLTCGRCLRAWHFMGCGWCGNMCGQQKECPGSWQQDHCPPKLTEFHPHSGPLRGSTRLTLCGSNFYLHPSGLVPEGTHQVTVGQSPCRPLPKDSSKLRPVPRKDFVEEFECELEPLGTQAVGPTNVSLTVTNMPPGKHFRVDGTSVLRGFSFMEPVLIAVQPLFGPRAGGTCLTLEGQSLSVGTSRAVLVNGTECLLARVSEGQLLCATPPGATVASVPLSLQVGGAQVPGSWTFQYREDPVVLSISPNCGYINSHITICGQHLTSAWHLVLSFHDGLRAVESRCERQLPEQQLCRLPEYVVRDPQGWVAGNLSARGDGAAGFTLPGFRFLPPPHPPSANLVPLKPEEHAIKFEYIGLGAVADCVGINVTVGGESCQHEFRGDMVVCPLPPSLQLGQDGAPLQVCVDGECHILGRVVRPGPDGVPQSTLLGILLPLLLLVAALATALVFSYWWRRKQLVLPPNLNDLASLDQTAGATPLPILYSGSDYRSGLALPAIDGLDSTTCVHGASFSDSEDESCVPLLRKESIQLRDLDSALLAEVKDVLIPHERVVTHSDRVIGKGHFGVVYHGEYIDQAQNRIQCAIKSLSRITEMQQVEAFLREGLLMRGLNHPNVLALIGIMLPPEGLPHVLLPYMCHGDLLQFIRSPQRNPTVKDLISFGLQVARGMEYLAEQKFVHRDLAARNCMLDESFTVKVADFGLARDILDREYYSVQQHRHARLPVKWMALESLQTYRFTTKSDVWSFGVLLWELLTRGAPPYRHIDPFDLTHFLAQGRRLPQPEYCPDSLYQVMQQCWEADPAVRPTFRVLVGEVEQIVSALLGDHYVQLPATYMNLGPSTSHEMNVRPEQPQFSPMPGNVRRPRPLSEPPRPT
Chain of wild-type BRAF (P15056 whole entry): as the sequence (P15056 whole entry) above
Chain of FAK/PTK2 (Q05397 whole entry): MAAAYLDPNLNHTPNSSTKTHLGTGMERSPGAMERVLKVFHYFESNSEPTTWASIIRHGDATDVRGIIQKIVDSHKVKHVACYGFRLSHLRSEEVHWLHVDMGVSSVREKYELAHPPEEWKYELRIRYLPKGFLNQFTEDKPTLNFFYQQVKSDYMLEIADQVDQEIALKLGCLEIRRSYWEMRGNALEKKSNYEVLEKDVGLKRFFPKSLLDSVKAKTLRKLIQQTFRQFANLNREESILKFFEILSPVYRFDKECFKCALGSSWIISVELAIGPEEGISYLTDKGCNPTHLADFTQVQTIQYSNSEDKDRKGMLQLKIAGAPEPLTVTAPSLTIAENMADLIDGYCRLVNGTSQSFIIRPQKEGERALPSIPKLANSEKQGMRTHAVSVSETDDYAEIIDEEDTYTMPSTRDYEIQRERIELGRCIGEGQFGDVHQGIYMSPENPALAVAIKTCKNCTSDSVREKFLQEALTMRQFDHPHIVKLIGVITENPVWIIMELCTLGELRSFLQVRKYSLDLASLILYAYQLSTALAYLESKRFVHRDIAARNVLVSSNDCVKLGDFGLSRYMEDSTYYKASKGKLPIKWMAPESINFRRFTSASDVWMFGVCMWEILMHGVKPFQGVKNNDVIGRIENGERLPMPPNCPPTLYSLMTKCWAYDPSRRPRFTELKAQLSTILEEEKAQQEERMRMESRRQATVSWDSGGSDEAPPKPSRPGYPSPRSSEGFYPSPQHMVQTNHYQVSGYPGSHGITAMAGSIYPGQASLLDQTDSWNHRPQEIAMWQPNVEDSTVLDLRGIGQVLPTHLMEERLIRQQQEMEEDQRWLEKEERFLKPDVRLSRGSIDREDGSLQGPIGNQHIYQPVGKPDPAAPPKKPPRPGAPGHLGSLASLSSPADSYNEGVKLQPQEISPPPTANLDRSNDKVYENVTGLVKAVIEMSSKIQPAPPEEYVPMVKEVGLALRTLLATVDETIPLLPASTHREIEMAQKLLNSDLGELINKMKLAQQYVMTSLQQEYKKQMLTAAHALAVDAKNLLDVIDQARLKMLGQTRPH

Take `C[C@H](O)CNc1nccc(-n2ccnc2Cc2cccc(NC(=O)Nc3ccc(C(F)(F)F)c(Cl)c3)c2)n1` [Example 23, (S)-1-(3-chloro-4-(trifluoromethyl)phenyl)-3-(3-((1-(2-((2-hydroxypropyl)amino)pyrimidin-4-yl)-1H-imidazol-2-yl)methyl)phenyl)urea]: the “inhibition rate to most other kinases” value in assay [1] is on record as “less than 30%”. Also, at wild-type BRAF, the IC50 turned out to be 186 nM. Besides, the “Inhibition Rate (Unit: %) BRAF” value at BRAF (10 µM) is given as 99.9%. The inhibition at 10 µM was 99% at BRAF (read-out: Inhibition Rate (Unit: %) BRAF); 17.6% at c-MET; 6.9% at ABL1; 1.2% at FAK/PTK2; 2.1% at c-Src; 0% on BTK. Also, the inhibition at 10 µM on RON/MST1R came to 0.42%.

In general, IC50 refers to the concentration that gives 50% inhibition.
